Experimental data: PMC4774911, “Biochemical Screening of Five Protein Kinases from Plasmodium falciparum against 14,000 Cell-Active Compounds” (PLoS ONE, 2016)
Where “and” joins values, the source holds several entries; their conditions need not be identical. Identical values can stand only once.

Columns and labels:
Test in all cases: biochemical
GAK = target: T1, GAK (Homo sapiens, UniProt O14976)
T1 sequence (O14976 1-1311): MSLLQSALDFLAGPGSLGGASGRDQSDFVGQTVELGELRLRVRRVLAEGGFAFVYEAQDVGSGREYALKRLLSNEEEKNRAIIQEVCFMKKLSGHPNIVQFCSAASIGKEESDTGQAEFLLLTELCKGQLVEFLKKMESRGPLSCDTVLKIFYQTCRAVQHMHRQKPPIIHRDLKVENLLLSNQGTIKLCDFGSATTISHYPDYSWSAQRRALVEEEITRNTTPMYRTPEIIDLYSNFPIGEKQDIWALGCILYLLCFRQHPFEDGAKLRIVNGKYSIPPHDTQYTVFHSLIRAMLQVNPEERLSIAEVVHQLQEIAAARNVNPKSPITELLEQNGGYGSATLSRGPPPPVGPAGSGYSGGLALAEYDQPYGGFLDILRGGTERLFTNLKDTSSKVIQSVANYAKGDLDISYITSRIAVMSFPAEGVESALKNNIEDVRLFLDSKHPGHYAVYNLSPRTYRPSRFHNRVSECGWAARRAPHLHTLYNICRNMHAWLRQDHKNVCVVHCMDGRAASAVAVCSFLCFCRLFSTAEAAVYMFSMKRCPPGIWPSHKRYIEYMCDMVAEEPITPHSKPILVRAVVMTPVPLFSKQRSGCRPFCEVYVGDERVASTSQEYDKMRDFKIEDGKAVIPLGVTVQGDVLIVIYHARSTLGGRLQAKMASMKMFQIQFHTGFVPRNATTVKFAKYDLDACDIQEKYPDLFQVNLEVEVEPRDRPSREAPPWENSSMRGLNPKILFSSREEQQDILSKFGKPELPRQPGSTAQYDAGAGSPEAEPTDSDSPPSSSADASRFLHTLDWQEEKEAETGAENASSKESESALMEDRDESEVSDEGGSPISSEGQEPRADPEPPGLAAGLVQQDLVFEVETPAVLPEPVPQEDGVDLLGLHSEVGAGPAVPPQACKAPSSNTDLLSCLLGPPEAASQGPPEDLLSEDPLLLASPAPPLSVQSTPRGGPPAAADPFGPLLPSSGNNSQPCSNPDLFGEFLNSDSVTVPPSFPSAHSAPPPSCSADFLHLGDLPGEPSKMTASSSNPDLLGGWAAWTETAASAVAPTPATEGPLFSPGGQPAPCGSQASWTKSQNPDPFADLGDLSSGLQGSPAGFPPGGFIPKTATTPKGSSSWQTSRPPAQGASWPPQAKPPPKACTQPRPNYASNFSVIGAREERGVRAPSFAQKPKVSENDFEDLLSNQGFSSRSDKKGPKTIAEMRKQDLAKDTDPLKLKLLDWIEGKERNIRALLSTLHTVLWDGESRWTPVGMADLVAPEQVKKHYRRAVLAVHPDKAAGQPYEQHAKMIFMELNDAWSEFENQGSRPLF

ADCK1 = target: T2, ADCK1 (Homo sapiens, UniProt Q86TW2)
T2 sequence (Q86TW2 1-530): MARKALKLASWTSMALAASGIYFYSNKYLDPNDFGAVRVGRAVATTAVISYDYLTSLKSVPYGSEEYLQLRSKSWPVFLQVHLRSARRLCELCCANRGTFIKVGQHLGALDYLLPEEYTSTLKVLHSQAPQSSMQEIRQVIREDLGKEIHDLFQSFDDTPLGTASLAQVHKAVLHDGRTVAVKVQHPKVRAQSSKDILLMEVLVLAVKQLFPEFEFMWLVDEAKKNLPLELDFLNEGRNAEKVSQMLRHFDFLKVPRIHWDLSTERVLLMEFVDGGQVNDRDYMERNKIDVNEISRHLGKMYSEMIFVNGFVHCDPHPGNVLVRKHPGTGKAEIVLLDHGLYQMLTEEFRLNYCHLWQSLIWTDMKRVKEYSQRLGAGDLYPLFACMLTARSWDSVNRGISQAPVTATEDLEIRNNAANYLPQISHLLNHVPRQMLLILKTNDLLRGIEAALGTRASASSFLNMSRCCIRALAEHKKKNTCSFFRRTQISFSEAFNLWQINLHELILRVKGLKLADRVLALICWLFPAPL

BRAF = BRAF (Homo sapiens, UniProt P15056)
MAP4K2 = target: T3, MAP4K2 (Homo sapiens, UniProt Q12851)
T3 sequence (Q12851 1-820): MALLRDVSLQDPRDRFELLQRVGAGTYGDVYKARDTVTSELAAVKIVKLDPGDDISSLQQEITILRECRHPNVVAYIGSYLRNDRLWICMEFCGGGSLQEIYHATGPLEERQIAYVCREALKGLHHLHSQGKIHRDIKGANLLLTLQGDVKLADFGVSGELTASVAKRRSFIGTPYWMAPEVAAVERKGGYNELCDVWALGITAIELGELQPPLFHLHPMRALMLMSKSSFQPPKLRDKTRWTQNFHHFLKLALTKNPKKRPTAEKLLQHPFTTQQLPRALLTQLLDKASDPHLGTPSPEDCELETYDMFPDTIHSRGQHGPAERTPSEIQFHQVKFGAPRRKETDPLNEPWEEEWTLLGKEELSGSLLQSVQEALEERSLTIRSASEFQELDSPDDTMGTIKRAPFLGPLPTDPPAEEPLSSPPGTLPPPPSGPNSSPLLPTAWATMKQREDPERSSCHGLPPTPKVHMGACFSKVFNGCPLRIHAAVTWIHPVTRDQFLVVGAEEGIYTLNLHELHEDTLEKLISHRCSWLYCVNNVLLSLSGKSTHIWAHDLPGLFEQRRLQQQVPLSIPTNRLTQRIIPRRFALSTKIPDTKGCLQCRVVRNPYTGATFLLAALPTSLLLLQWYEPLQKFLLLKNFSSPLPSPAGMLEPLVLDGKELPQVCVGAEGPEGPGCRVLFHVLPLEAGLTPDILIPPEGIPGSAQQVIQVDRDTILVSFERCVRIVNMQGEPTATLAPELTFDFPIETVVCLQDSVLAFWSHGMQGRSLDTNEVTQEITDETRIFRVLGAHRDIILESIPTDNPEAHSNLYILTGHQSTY

mTOR = mTOR (Homo sapiens, UniProt P42345)
MAPK8 = MAPK8 (Homo sapiens, UniProt P45983)
Sequence of MAPK8 (P45983 whole entry): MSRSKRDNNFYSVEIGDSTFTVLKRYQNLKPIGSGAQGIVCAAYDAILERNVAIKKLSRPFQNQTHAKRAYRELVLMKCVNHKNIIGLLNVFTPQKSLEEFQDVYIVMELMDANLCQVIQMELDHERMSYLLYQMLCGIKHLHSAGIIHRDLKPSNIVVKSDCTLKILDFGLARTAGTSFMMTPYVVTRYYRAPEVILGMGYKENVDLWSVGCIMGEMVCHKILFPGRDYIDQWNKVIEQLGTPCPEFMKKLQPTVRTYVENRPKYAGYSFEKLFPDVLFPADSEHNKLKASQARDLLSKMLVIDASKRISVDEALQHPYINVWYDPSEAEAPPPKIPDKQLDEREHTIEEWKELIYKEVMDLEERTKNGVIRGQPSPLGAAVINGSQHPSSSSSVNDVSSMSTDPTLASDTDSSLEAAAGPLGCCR

Sequence of BRAF (P15056 whole entry): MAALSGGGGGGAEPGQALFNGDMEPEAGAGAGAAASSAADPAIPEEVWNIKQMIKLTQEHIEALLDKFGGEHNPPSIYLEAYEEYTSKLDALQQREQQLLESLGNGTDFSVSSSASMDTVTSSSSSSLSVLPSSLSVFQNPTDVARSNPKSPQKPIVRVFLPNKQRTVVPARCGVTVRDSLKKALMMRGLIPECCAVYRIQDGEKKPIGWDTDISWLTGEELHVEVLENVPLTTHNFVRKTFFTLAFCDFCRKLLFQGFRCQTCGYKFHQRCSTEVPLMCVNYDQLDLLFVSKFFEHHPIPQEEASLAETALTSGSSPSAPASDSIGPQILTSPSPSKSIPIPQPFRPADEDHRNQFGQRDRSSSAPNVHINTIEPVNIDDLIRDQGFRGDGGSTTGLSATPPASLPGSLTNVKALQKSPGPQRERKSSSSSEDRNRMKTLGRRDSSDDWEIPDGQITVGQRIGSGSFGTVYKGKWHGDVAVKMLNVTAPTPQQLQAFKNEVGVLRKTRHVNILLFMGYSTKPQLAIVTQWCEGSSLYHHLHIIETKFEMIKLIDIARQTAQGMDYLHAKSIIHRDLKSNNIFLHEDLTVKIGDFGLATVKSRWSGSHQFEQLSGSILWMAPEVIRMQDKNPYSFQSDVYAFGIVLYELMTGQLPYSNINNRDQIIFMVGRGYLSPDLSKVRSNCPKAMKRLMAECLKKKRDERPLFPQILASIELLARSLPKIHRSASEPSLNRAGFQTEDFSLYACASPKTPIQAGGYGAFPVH

Row | SMILES | IC50 (GAK) | IC50 (ADCK1) | IC50 (BRAF) | IC50 (MAP4K2) | IC50 (mTOR) | IC50 (MAPK8)
1 | CN1CCN(c2ccc(Nc3ncc(C#N)c(Nc4ccccc4C(N)=O)n3)cc2)CC1.Cl [TCMDC-134116] | 82 nM and 100 nM | 1000 nM | 2000 nM | 1000 nM | > 20000 nM | 1500 nM and 5100 nM
2 | Cl.NCC1(c2nc(-c3ccc(Cl)c(O)c3)c(-c3ccncc3)[nH]2)CCCCC1 [TCMDC-141154] | > 20000 nM | > 20000 nM | 1100 nM and 900 nM | > 20000 nM | > 20000 nM | > 20000 nM
3 | CN(C)CC(O)COc1ccc(Nc2ncc([N+](=O)[O-])c(Nc3ccccc3O)n2)cc1.O=C(O)C(F)(F)F (stereo not drawn) [TCMDC-141399] | 1500 nM and 2300 nM | 1800 nM | > 20000 nM | > 20000 nM | > 20000 nM | > 20000 nM
